Assay results: ChEMBL document CHEMBL4316589, “Attachment of a 5-nitrofuroyl moiety to spirocyclic piperidines produces non-toxic nitrofurans that are efficacious in vitro against multidrug-resistant Mycobacterium tuberculosis” (Eur J Med Chem, 2019)
Converted amounts (≈) assume the structure as drawn.

Tests used:
[1] = system: ARPE-19; experiment: Cytotoxicity against human ARPE19 cells assessed as effect on cell viability at 10 to 100 uM after 48 hrs in normoxic condition by MTT assay; type: cell-based; conditions: arpe-19, 48 h
[2] = system: Mycobacterium tuberculosis; experiment: Antimycobacterial activity against drug-sensitive Mycobacterium tuberculosis H37Rv measured after 7 days by resazurin dye-based assay; type: functional; conditions: 168 h
[3] = system: ARPE-19; experiment: Cytotoxicity against human ARPE19 cells assessed as effect on cell viability at 100 uM after 48 hrs in normoxic condition by MTT assay; type: cell-based; conditions: arpe-19, 48 h
[4] = system: Staphylococcus aureus; experiment: Antibacterial activity against Staphylococcus aureus assessed as bacterial growth inhibition zone diameter at 5 ug after 18 hrs by Kirby-Bauer disk diffusion method; type: functional; conditions: read-out: DIZ
[5] = system: Klebsiella aerogenes; experiment: Antibacterial activity against Enterobacter aerogenes assessed as bacterial growth inhibition zone diameter at 5 ug after 18 hrs by Kirby-Bauer disk diffusion method; type: functional; conditions: read-out: DIZ
[6] = system: Enterococcus faecium; experiment: Antibacterial activity against Enterococcus faecium assessed as bacterial growth inhibition zone diameter at 5 ug after 18 hrs by Kirby-Bauer disk diffusion method; type: functional; conditions: read-out: DIZ
[7] = system: Pseudomonas aeruginosa; experiment: Antibacterial activity against Pseudomonas aeruginosa assessed as bacterial growth inhibition zone diameter at 5 ug after 18 hrs by Kirby-Bauer disk diffusion method; type: functional; conditions: read-out: DIZ
[8] = system: Klebsiella pneumoniae; experiment: Antibacterial activity against Klebsiella pneumoniae assessed as bacterial growth inhibition zone diameter at 5 ug after 18 hrs by Kirby-Bauer disk diffusion method; type: functional; conditions: read-out: DIZ
[9] = system: Acinetobacter baumannii; experiment: Antibacterial activity against Acinetobacter baumannii assessed as bacterial growth inhibition zone diameter at 5 ug after 18 hrs by Kirby-Bauer disk diffusion method; type: functional; conditions: read-out: DIZ
[10] = Toxicity in C57BL6 mouse assessed as mortality at 400 mg/kg, po administered via metal gavage measured daily over 14 days; type: organism-based; conditions: in vivo, 336 h
[11] = Toxicity in C57BL6 mouse assessed as mortality at 900 mg/kg, po administered via metal gavage measured daily over 14 days; type: organism-based; conditions: in vivo, 336 h
[12] = Toxicity in po dosed C57BL6 mouse administered via metal gavage measured daily over 14 days; type: organism-based; conditions: in vivo

O=C(c1ccc([N+](=O)[O-])o1)N1CCC2(CCCCO2)CC1
Activity [1]: Non-Toxic
MIC [2]: 3.1 µg/mL (≈ 10.5 µM)

O=C(c1ccc([N+](=O)[O-])o1)N1CCC2(CC1)CC(NS(=O)(=O)c1ccccc1F)CCO2 (centres undefined)
MIC [2]: 50 µg/mL (≈ 107 µM)

O=C(c1ccc([N+](=O)[O-])o1)N1CCC2(CC1)CC(Cc1nc(C3CC3)no1)CCO2 (centres undefined)
Activity [1]: Non-Toxic
MIC [2]: 3.1 µg/mL (≈ 7.44 µM)

CN(Cc1ccccc1)C(=O)CC1CCOC2(CCN(C(=O)c3ccc([N+](=O)[O-])o3)CC2)C1 (centres undefined)
MIC [2]: 12.5 µg/mL (≈ 27.4 µM)

Cl.NC1CCOC2(CCN(C(=O)c3ccc([N+](=O)[O-])o3)CC2)C1 (centres undefined)
MIC [2]: > 100 µg/mL

O=C(c1ccc([N+](=O)[O-])o1)N1CCC2(CC1)CC(OCc1ccc(F)cc1)CCO2 (centres undefined)
Activity [1]: Non-Toxic
MIC [2]: 3.1 µg/mL (≈ 7.41 µM)

CCOC1CCOC2(CCN(C(=O)c3ccc([N+](=O)[O-])o3)CC2)C1 (centres undefined)
MIC [2]: 50 µg/mL (≈ 148 µM)

O=C(c1ccc([N+](=O)[O-])o1)N1CCC2(CC1)CC(OCC1CC1)CCO2 (centres undefined)
MIC [2]: 25 µg/mL (≈ 68.6 µM)

COc1ccc(CC2CCOC3(CCN(C(=O)c4ccc([N+](=O)[O-])o4)CC3)C2)cc1 (centres undefined)
Activity [3]: Toxic
MIC [2]: 3.1 µg/mL (≈ 7.48 µM)

O=C(c1ccc([N+](=O)[O-])o1)N1CCC2(CC1)CC(NS(=O)(=O)c1ccc(Br)cc1)CCO2 (centres undefined)
MIC [2]: 25 µg/mL (≈ 47.3 µM)

O=C(c1ccc([N+](=O)[O-])o1)N1CCC2(CC1)CC(N1CCOCC1)CCO2 (centres undefined)
MIC [2]: > 100 µg/mL

O=C(c1ccc([N+](=O)[O-])o1)N1CCC2(CC1)CC(NS(=O)(=O)c1ccc(F)cc1)CCO2 (centres undefined)
MIC [2]: 50 µg/mL (≈ 107 µM)

COCCc1noc(CC2CCOC3(CCN(C(=O)c4ccc([N+](=O)[O-])o4)CC3)C2)n1 (centres undefined)
Activity [1]: Non-Toxic
MIC [2]: 6.2 µg/mL (≈ 14.3 µM)

CS(=O)(=O)NC1CCOC2(CCN(C(=O)c3ccc([N+](=O)[O-])o3)CC2)C1 (centres undefined)
MIC [2]: > 100 µg/mL

O=C(c1ccc([N+](=O)[O-])o1)N1CCC2(CC1)CC(NS(=O)(=O)c1ccc(F)c(Cl)c1)CCO2 (centres undefined)
MIC [2]: 25 µg/mL (≈ 49.8 µM)

COc1ccc(S(=O)(=O)NC2CCOC3(CCN(C(=O)c4ccc([N+](=O)[O-])o4)CC3)C2)cc1 (centres undefined)
MIC [2]: 50 µg/mL (≈ 104 µM)

Cc1ccc(CC2CCOC3(CCN(C(=O)c4ccc([N+](=O)[O-])o4)CC3)C2)cc1 (centres undefined)
Activity [3]: Toxic
MIC [2]: 3.1 µg/mL (≈ 7.78 µM)

Cc1cccc(S(=O)(=O)NC2CCOC3(CCN(C(=O)c4ccc([N+](=O)[O-])o4)CC3)C2)c1 (centres undefined)
MIC [2]: 50 µg/mL (≈ 108 µM)

O=C(O)c1cn(C2CC2)c2cc(N3CCNCC3)c(F)cc2c1=O [CIPROFLOXACIN]
zone of inhibition at 5 µg/disc [4]: 23 mm
zone of inhibition at 5 µg/disc [5]: 25 mm
zone of inhibition at 5 µg/disc [6]: 23 mm
zone of inhibition at 5 µg/disc [7]: 23 mm
zone of inhibition at 5 µg/disc [8]: 25 mm
zone of inhibition at 5 µg/disc [9]: 30 mm

CC(C)(C)OC(=O)NC1CCOC2(CCN(C(=O)c3ccc([N+](=O)[O-])o3)CC2)C1 (centres undefined)
MIC [2]: 25 µg/mL (≈ 61.1 µM)

O=C(c1ccc([N+](=O)[O-])o1)N1CCC2(CC1)CC(NS(=O)(=O)c1ccccc1)CCO2 (centres undefined)
MIC [2]: 50 µg/mL (≈ 111 µM)

O=C(c1ccc([N+](=O)[O-])o1)N1CCC2(CC1)CC(Cc1ccc(F)cc1)CCO2 (centres undefined)
MIC [2]: 12.5 µg/mL (≈ 31.1 µM)

CNC(=O)CC1CCOC2(CCN(C(=O)c3ccc([N+](=O)[O-])o3)CC2)C1 (centres undefined)
MIC [2]: > 100 µg/mL

O=C(c1ccc([N+](=O)[O-])o1)N1CCC2(CC1)CC(Cc1nc(-c3cccnc3)no1)CCO2 (centres undefined)
zone of inhibition at 5 µg/disc [4]: 0 mm
zone of inhibition at 5 µg/disc [5]: 0 mm
Activity [10]: Non-Toxic
Activity [1]: Non-Toxic
zone of inhibition at 5 µg/disc [6]: 0 mm
zone of inhibition at 5 µg/disc [7]: 0 mm
Activity [11]: Toxic
LD50 at 336 h ([12]; C57BL6, mouse): 617 mg/kg
LD16 ([12]; mouse, 336 h): 198 mg/kg
LD84 ([12]; mouse, 336 h): 787.5 mg/kg
LD100 ([12]; mouse, 336 h): 900 mg/kg
MIC [2]: 1.6 µg/mL (≈ 3.53 µM)
zone of inhibition at 5 µg/disc [8]: 0 mm
zone of inhibition at 5 µg/disc [9]: 0 mm

O=C(c1ccc([N+](=O)[O-])o1)N1CCC2(CC1)CC(Oc1ccncc1)CCO2 (centres undefined)
MIC [2]: 25 µg/mL (≈ 64.5 µM)
